Source: ChEMBL document CHEMBL1142305, “The effect of flavonoid derivatives on doxorubicin transport and metabolism” (Bioorg Med Chem, 2008)
Blank lines part the entries; values can stand above or below the molecule they belong to.

Tests used:
MDA-MB-435 [1] = test: Cytotoxicity against human MDA-MB-435 cells at 10 uM after 96 hrs by MTT assay; assay type: cell-based; conditions: mda-mb-435, 96 h
Liver [2] = test: Effect on doxorubicin metabolism in human liver cytosolic fractions assessed as inhibition of formation of doxorubicinol at 30 uM; assay type: ADME, subcellular; conditions: cytosol
[3] = Increase in drug uptake in human NCI-ADR-RES cells in presence of 100 uM verapamil; assay type: ADME, cell-based
MDA-MB-435 [4] = test: Increase in drug uptake in human MDA-MB-435 cells in presence of 100 uM verapamil; assay type: ADME, cell-based
[5] = Inhibition of drug efflux in human NCI-ADR-RES cells at 100 nM after 120 mins in presence of 100 uM verapamil; assay type: ADME, cell-based; conditions: 2 h, 0.1 µM
[6] = Effect on drug efflux in human NCI-ADR-RES cells at 100 nM upto 120 mins; assay type: ADME, cell-based; conditions: 2 h, 0.1 µM
MDA-MB-435 [7] = test: Drug uptake in human MDA-MB-435 cells in presence of 100 uM MK-571; assay type: ADME, cell-based
MDA-MB-435 [8] = test: Effect on drug efflux in human MDA-MB-435 cells at 100 nM upto 120 mins; assay type: ADME, cell-based; conditions: mda-mb-435, 2 h, 0.1 µM
[9] = Effect on drug uptake in human NCI-ADR-RES cells in presence of 10 uM verapamil; assay type: ADME, cell-based
MDA-MB-435 [10] = test: Effect on drug uptake in human MDA-MB-435 cells in presence of 10 uM verapamil; assay type: ADME, cell-based
Liver [11] = test: Metabolic stability in human liver cytosolic fraction assessed as formation of doxorubicinol after 60 mins; assay type: ADME, subcellular; conditions: cytosol, 1 h
Liver microsomes = test: Metabolic stability in human liver microsomal fraction assessed as formation of doxorubicin aglycone after 60 mins; assay type: ADME, Microsome; conditions: 1 h
[12] = Decrease in [14C]DOX accumulation in human NCI-ADR-RES cells at 30 uM after 120 mins; assay type: ADME, cell-based; design: scale not given: the % may be the effect or the level left; conditions: 2 h
[13] = Effect on [14C]DOX efflux in human NCI-ADR-RES cells; assay type: ADME, cell-based
Liver [14] = test: Effect on doxorubicin metabolism in human liver cytosolic fractions assessed as inhibition of formation of doxorubicinol; assay type: ADME, subcellular, Cytosol

Compound: CCc1ccc(/C=C2\Oc3cc(OC)cc(O)c3C2=O)cc1
Activity (MDA-MB-435 [1]): Toxic

Compound: O=C1C[C@@H](c2ccc(O)c(O)c2)Oc2cc(O)cc(O)c21 [ERIODICTYOL]
Activity (MDA-MB-435 [1]): Toxic

Activity (Liver [2]): Active
Compound: O=C(/C=C/c1ccc(I)cc1)c1c(O)cc(O)cc1O
Activity (MDA-MB-435 [1]): Toxic

Fold change [3]: 7.6 | Fold change (MDA-MB-435 [4]): 3.7 | Activity [5]: Active | Activity [6]: 66% | Activity (MDA-MB-435 [7]): Not Active | Activity (MDA-MB-435 [8]): 23% | Activity [9]: Not Active | Activity (MDA-MB-435 [10]): Not Active
Compound: C[C@@H]1O[C@@H](O[C@H]2C[C@](O)(C(=O)CO)Cc3c(O)c4c(c(O)c32)C(=O)c2c(O[14CH3])cccc2C4=O)C[C@H](N)[C@@H]1O

Compound: O=c1c(O)c(-c2ccc(O)c(O)c2)oc2cc(O)ccc12 [FISETIN]
Activity (MDA-MB-435 [1]): Toxic

Compound: COc1cc(OC)c2c(c1)O/C(=C\c1cc(OC)c(OC)cc1OC)C2=O
Activity (MDA-MB-435 [1]): Toxic

Activity (Liver [11]): 15.1% | Activity (Liver microsomes): 4.63%
Compound: COc1cccc2c1C(=O)c1c(O)c3c(c(O)c1C2=O)C[C@@](O)(C(=O)CO)C[C@@H]3O[C@H]1C[C@H](N)[C@H](O)[C@H](C)O1 [DOXORUBICIN]

Compound: COc1cc(O)c2c(c1)O/C(=C\c1ccc(Cl)cc1)C2=O
Activity (MDA-MB-435 [1]): Toxic

Activity (Liver [2]): Active
Compound: COc1cc(O)c2c(c1)O/C(=C\c1ccccc1)C2=O
Activity (MDA-MB-435 [1]): Toxic

Compound: O=c1c(O)c(-c2ccc(O)c(O)c2)oc2cc(O)cc(O)c12 [QUERCETIN]
Activity (MDA-MB-435 [1]): Toxic | Activity [12]: 51.3% | Activity [13]: Not Active | IC50 (Liver [14]): 16.2 µM
